Source: patent publication US8497240B2 (priority 2006, dated 2013)
Like-named read-outs stand apart in the source and are kept apart here.

What was measured:
[1] = format: in vivo, NIH/Swiss mice
Experimental: (§1) In FIG. 3A, bars represent mean±sd, n=6-10. […] Gavage (1.5 g/kg) was given at t=0, Sample was taken at t=30 min. […] In FIG. 3B, points represent mean±sem, n=8-15.
Peptide was injected IP at t=−5 minutes into 4-hour fasted NIH/Swiss female mice. […] In FIG. 17 points represent mean+/−sem. […] Samples were taken at t=60, t=120 and t=180.

[2] = format: in vivo, NIH/Swiss mice; conditions: 80 nmol/kg, AUC240
Experimental: as §1
Points represent mean±sem.

Row | Structure (SMILES) | OGTT/GL (%) ([1]; 30 nmol/kg) | OGTT/GL (%) ([1]; 250 nmol/kg) | Basal Glucose Lowering at Peptide Conc. of 80 nmol/kg [2] | OGTT/GL (%) ([1]; 350 nmol/kg) | Basal Gluc. Low. 80 nmol/Kg [2]
1 | CC[C@H](C)[C@H](NC(=O)[C@H](CO)NC(=O)[C@H](Cc1ccc(O)cc1)NC(=O)[C@H](CC(=O)O)NC(=O)[C@H](CO)NC(=O)[C@@H](NC(=O)[C@H](Cc1ccccc1)NC(=O)[C@@H](NC(=O)CNC(=O)[C@H](CCC(=O)O)NC(=O)[C@@H](C)NC(=O)[C@@H](N)Cc1ccc(O)cc1)[C@@H](C)O)[C@@H](C)CC)C(=O)N[C@@H](C)C(=O)N[C@@H](CCSC)C(=O)N[C@@H](CC(=O)O)C(=O)N[C@@H](CCCCN)C(=O)N[C@H](C(=O)N[C@@H](Cc1c[nH]cn1)C(=O)N[C@@H](CCC(N)=O)C(=O)N[C@@H](CCC(N)=O)C(=O)N[C@@H](CC(=O)O)C(=O)N[C@@H](Cc1ccccc1)C(=O)N[C@H](C(=O)N[C@@H](CC(N)=O)C(=O)N[C@@H](Cc1c[nH]c2ccccc12)C(=O)N[C@@H](CC(C)C)C(=O)N[C@@H](CC(C)C)C(=O)N[C@@H](C)C(=O)N[C@@H](CCC(N)=O)C(=O)N[C@@H](CCCCN)C(=O)N[C@H](C(=O)N[C@@H](CO)C(=O)N1CCC[C@H]1C(=O)N1CCC[C@H]1C(=O)N1CCC[C@H]1C(N)=O)[C@@H](C)O)C(C)C)[C@@H](C)CC [0601GIP4345] | −14 @ 30 nmol/kg % | −25 @ 250 nmol/kg, % | −11%, AUC240 | – | –
2 | CC[C@H](C)[C@H](NC(=O)[C@H](CO)NC(=O)[C@H](Cc1ccc(O)cc1)NC(=O)[C@H](CC(=O)O)NC(=O)[C@H](CO)NC(=O)[C@@H](NC(=O)[C@H](Cc1ccccc1)NC(=O)[C@@H](NC(=O)CNC(=O)[C@H](CCC(=O)O)NC(=O)[C@@H](C)NC(=O)[C@@H](N)Cc1ccc(O)cc1)[C@@H](C)O)[C@@H](C)CC)C(=O)N[C@@H](C)C(=O)N[C@@H](CCSC)C(=O)N[C@@H](CC(=O)O)C(=O)N[C@@H](CCCCN)C(=O)N[C@H](C(=O)N[C@@H](Cc1c[nH]cn1)C(=O)N[C@@H](CCC(N)=O)C(=O)N[C@@H](CCC(N)=O)C(=O)N[C@@H](CC(=O)O)C(=O)N[C@@H](Cc1ccccc1)C(=O)N[C@H](C(=O)N[C@@H](CC(N)=O)C(=O)N[C@@H](Cc1c[nH]c2ccccc12)C(=O)N[C@@H](CC(C)C)C(=O)N[C@@H](CC(C)C)C(=O)N[C@@H](C)C(=O)N[C@@H](CCC(N)=O)C(=O)N[C@@H](CCCCN)C(=O)N1CCC[C@H]1C(=O)N[C@@H](CCCCN)C(=O)N[C@@H](CC(C)C)C(=O)N[C@H](C(=O)N[C@@H](CCCCN)C(=O)N[C@@H](CC(C)C)C(=O)N[C@H](C(=O)N[C@@H](CCCCN)C(=O)N[C@@H](CO)C(N)=O)[C@@H](C)CC)[C@@H](C)CC)C(C)C)[C@@H](C)CC [0601GIP4346] | −20, 30% | – | −10%, AUC240 | – | –
3 | CC[C@H](C)[C@H](NC(=O)[C@H](CO)NC(=O)[C@H](Cc1ccc(O)cc1)NC(=O)[C@H](CC(=O)O)NC(=O)[C@H](CO)NC(=O)[C@@H](NC(=O)[C@H](Cc1ccccc1)NC(=O)[C@@H](NC(=O)CNC(=O)[C@H](CCC(=O)O)NC(=O)[C@@H](C)NC(=O)[C@H](Cc1ccc(O)cc1)NC)[C@@H](C)O)[C@@H](C)CC)C(=O)N[C@@H](C)C(=O)N[C@@H](CCSC)C(=O)N[C@@H](CC(=O)O)C(=O)N[C@@H](CCCCN)C(=O)N[C@H](C(=O)N[C@@H](Cc1c[nH]cn1)C(=O)N[C@@H](CCC(N)=O)C(=O)N[C@@H](CCC(N)=O)C(=O)N[C@@H](CC(=O)O)C(=O)N[C@@H](Cc1ccccc1)C(=O)N[C@H](C(=O)N[C@@H](CC(N)=O)C(=O)N[C@@H](Cc1c[nH]c2ccccc12)C(=O)N[C@@H](CC(C)C)C(=O)N[C@@H](CC(C)C)C(=O)N[C@@H](C)C(=O)N[C@@H](CCC(N)=O)C(=O)N[C@@H](CCCCN)C(=O)N1CCC[C@H]1C(=O)N[C@@H](CO)C(=O)N[C@@H](CO)C(=O)NCC(=O)N[C@@H](C)C(=O)N1CCC[C@H]1C(=O)N1CCC[C@H]1C(=O)N1CCC[C@H]1C(=O)N[C@@H](CO)C(N)=O)C(C)C)[C@@H](C)CC [Compound 0601GIP4238] | – | – | −6%, AUC240 | −25 | –
4 | CC[C@H](C)[C@H](NC(=O)[C@H](CO)NC(=O)[C@H](Cc1ccc(O)cc1)NC(=O)[C@H](CC(=O)O)NC(=O)[C@H](CO)NC(=O)[C@@H](NC(=O)[C@H](Cc1ccccc1)NC(=O)[C@@H](NC(=O)CNC(=O)[C@H](CC(=O)O)NC(=O)[C@H](CO)NC(=O)[C@@H](N)Cc1ccc(O)cc1)[C@@H](C)O)[C@@H](C)CC)C(=O)N[C@@H](C)C(=O)N[C@@H](CCSC)C(=O)N[C@@H](CC(=O)O)C(=O)N[C@@H](CCCCN)C(=O)N[C@H](C(=O)N[C@@H](Cc1c[nH]cn1)C(=O)N[C@@H](CCC(N)=O)C(=O)N[C@@H](CCC(N)=O)C(=O)N[C@@H](CC(=O)O)C(=O)N[C@@H](Cc1ccccc1)C(=O)N[C@H](C(=O)N[C@@H](CC(N)=O)C(=O)N[C@@H](Cc1c[nH]c2ccccc12)C(=O)N[C@@H](CC(C)C)C(=O)N[C@@H](CC(C)C)C(=O)N[C@@H](C)C(=O)N[C@@H](CCC(N)=O)C(=O)N[C@@H](CCCCN)C(=O)NCCC(=O)N1CCC[C@H]1C(=O)N[C@@H](CO)C(=O)N[C@@H](CO)C(=O)NCC(=O)N[C@@H](C)C(=O)N1CCC[C@H]1C(=O)N1CCC[C@H]1C(=O)N1CCC[C@H]1C(=O)N[C@@H](CO)C(N)=O)C(C)C)[C@@H](C)CC [Compound 0601GIP4395] | −11, 30% | – | −0%, AUC240 | – | –
5 | CC[C@H](C)[C@H](NC(=O)[C@H](CO)NC(=O)[C@H](Cc1ccc(O)cc1)NC(=O)[C@H](CC(=O)O)NC(=O)[C@H](CO)NC(=O)[C@@H](NC(=O)[C@H](Cc1ccccc1)NC(=O)[C@@H](NC(=O)CNC(=O)[C@H](CCC(=O)O)NC(=O)[C@@H](C)NC(=O)[C@@H](N)Cc1ccc(O)cc1)[C@@H](C)O)[C@@H](C)CC)C(=O)N[C@@H](C)C(=O)N[C@@H](CCSC)C(=O)N[C@@H](CC(=O)O)C(=O)N[C@@H](CCCCN)C(=O)N[C@H](C(=O)N[C@@H](Cc1c[nH]cn1)C(=O)N[C@@H](CCC(N)=O)C(=O)N[C@@H](CCC(N)=O)C(=O)N[C@@H](CC(=O)O)C(=O)N[C@@H](Cc1ccccc1)C(=O)N[C@H](C(=O)N[C@@H](CC(N)=O)C(=O)N[C@@H](Cc1c[nH]c2ccccc12)C(=O)N[C@@H](CC(C)C)C(=O)N[C@@H](CC(C)C)C(=O)N[C@@H](C)C(=O)N[C@@H](CCC(N)=O)C(=O)N[C@@H](CCCCN)C(=O)N1CCC[C@H]1C(=O)N[C@@H](CCCCN)C(=O)N[C@@H](CCCCN)C(=O)N[C@H](C(=O)N[C@@H](CCCNC(=N)N)C(=O)N[C@@H](C)C(=O)N[C@@H](CO)C(N)=O)[C@@H](C)CC)C(C)C)[C@@H](C)CC [Compound 0601GIP4818] | −23, % | – | – | – | −9%,
6 | CC[C@H](C)[C@H](NC(=O)[C@H](CO)NC(=O)[C@H](Cc1ccc(O)cc1)NC(=O)[C@H](CC(=O)O)NC(=O)[C@H](CO)NC(=O)[C@@H](NC(=O)[C@H](Cc1ccccc1)NC(=O)[C@@H](NC(=O)CNC(=O)[C@H](CCC(=O)O)NC(=O)[C@@H](C)NC(=O)[C@@H](N)Cc1ccc(O)cc1)[C@@H](C)O)[C@@H](C)CC)C(=O)N[C@@H](C)C(=O)N[C@@H](CCSC)C(=O)N[C@@H](CC(=O)O)C(=O)N[C@@H](CCCCN)C(=O)N[C@H](C(=O)N[C@@H](Cc1c[nH]cn1)C(=O)N[C@@H](CCC(N)=O)C(=O)N[C@@H](CCC(N)=O)C(=O)N[C@@H](CC(=O)O)C(=O)N[C@@H](Cc1ccccc1)C(=O)N[C@H](C(=O)N[C@@H](CCC(N)=O)C(=O)N[C@@H](Cc1c[nH]c2ccccc12)C(=O)N[C@@H](CC(C)C)C(=O)N[C@@H](CC(C)C)C(=O)N[C@@H](C)C(=O)N[C@@H](CCC(N)=O)C(=O)N[C@@H](CCCCN)C(=O)N1CCC[C@H]1C(=O)N[C@@H](CO)C(=O)N[C@@H](CO)C(=O)NCC(=O)N[C@@H](C)C(=O)N1CCC[C@H]1C(=O)N1CCC[C@H]1C(=O)N1CCC[C@H]1C(=O)N[C@@H](CO)C(N)=O)C(C)C)[C@@H](C)CC [Compound 0601GIP4846] | −25, % | – | −6%, | – | –
7 | CC[C@H](C)[C@H](NC(=O)[C@H](CO)NC(=O)[C@H](Cc1ccc(O)cc1)NC(=O)[C@H](CC(=O)O)NC(=O)[C@H](CO)NC(=O)[C@@H](NC(=O)[C@H](Cc1ccccc1)NC(=O)[C@@H](NC(=O)CNC(=O)[C@H](CCC(=O)O)NC(=O)[C@@H](C)NC(=O)[C@@H](N)Cc1ccc(O)cc1)[C@@H](C)O)[C@@H](C)CC)C(=O)N[C@@H](C)C(=O)N[C@@H](CCSC)C(=O)N[C@@H](CC(=O)O)C(=O)N[C@@H](CCCCN)C(=O)N[C@H](C(=O)N[C@@H](Cc1c[nH]cn1)C(=O)N[C@@H](CCC(N)=O)C(=O)N[C@@H](CCC(N)=O)C(=O)N[C@@H](CC(=O)O)C(=O)N[C@@H](Cc1ccccc1)C(=O)N[C@H](C(=O)N[C@@H](CC(N)=O)C(=O)N[C@@H](Cc1c[nH]c2ccccc12)C(=O)N[C@@H](CC(C)C)C(=O)N[C@@H](CC(C)C)C(=O)N[C@@H](C)C(=O)N[C@@H](CCC(N)=O)C(=O)N[C@@H](CCCCN)C(=O)N1CCC[C@H]1C(=O)N[C@@H](CO)C(=O)N[C@@H](CO)C(=O)NCC(=O)N[C@@H](C)C(=O)N1CCC[C@H]1C(=O)NCC(=O)N1CCC[C@H]1C(=O)N[C@@H](CO)C(N)=O)C(C)C)[C@@H](C)CC [Compound 0601GIP4952] | −21, % | – | −1, % | – | –
